molecular target: Human immunodeficiency virus type 1 integrase (Human immunodeficiency virus 1, UniProt Q7ZJM1); assay: Inhibitory activity against HIV-1 integrase
Sequence (Q7ZJM1 whole entry): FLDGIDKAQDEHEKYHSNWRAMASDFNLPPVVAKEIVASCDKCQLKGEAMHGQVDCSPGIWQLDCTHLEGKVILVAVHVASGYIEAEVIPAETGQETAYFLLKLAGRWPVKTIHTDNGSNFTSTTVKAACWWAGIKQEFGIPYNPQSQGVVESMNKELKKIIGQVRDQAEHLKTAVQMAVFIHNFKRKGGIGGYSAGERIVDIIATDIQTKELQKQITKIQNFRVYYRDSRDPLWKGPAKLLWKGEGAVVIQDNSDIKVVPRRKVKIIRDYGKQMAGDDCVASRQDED

| IC50 | SMILES |
| --- | --- |
| 7.8 µM | C[C@@H]1O[C@@H](O[C@@H]2[C@@H](O)[C@H](OCCc3ccc(O)c(O)c3)O[C@H](CO)[C@H]2OC(=O)/C=C/c2ccc(O)c(O)c2)[C@H](O)[C@H](O)[C@H]1O [ACETOSIDE] |
| 5.4 µM | COC1O[C@H](CO)[C@@H](O)[C@H](OC(=O)c2cc(O)c(O)c(O)c2)[C@H]1OC(=O)c1cc(O)c(O)c(O)c1 (stereo partly specified) |
| 35.1 µM | CO[C@@H]1O[C@H](COC(=O)/C=C/c2ccc(O)c(O)c2)[C@@H](O)[C@H](OC(=O)/C=C/c2ccc(O)c(O)c2)[C@H]1O |
| 82.4 µM | CO[C@H]1O[C@H](COC(=O)/C=C/c2ccc(O)c(O)c2)[C@@H](O)[C@H](OC(=O)/C=C/c2ccc(O)c(O)c2)[C@H]1O |
| 31.8 µM | CO[C@@H]1O[C@H](CO)[C@@H](O)[C@H](OC(=O)/C=C/c2ccc(O)c(O)c2)[C@H]1OC(=O)/C=C/c1ccc(O)c(O)c1 |
| 89.6 µM | CO[C@@H]1O[C@H](COC(=O)/C=C/c2ccc(O)c(O)c2)[C@@H](OC(=O)/C=C/c2ccc(O)c(O)c2)[C@H](OC(=O)/C=C/c2ccc(O)c(O)c2)[C@H]1OC(=O)/C=C/c1ccc(O)c(O)c1 |
| 29.1 µM | CO[C@H]1O[C@H](CO)[C@@H](O)[C@H](OC(=O)/C=C/c2ccc(O)c(O)c2)[C@H]1OC(=O)/C=C/c1ccc(O)c(O)c1 |
| 70 µM | CO[C@H]1O[C@H](COC(=O)/C=C/c2ccc(O)c(O)c2)[C@@H](O)[C@H](O)[C@H]1OC(=O)/C=C/c1ccc(O)c(O)c1 |
| 57.5 µM | COc1cc(/C=C/C(=O)CC(=O)/C=C/c2ccc(O)c(OC)c2)ccc1O [CURCUMIN] |
| > 119 µM | CO[C@H]1O[C@H](COC(=O)/C=C/c2ccc(O)c(O)c2)[C@@H](OC(=O)/C=C/c2ccc(O)c(O)c2)[C@H](OC(=O)/C=C/c2ccc(O)c(O)c2)[C@H]1OC(=O)/C=C/c1ccc(O)c(O)c1 |
| 30.5 µM | CO[C@@H]1O[C@H](COC(=O)/C=C/c2ccc(O)c(O)c2)[C@@H](O)[C@H](O)[C@H]1OC(=O)/C=C/c1ccc(O)c(O)c1 |
